From the supplement of paper PMC12698765
Counter-ions that a name gives are not always drawn. ± gives the standard deviation of the averaged measurements.

How the values were obtained:
[1] = tested on: 409B2 hiPSC (iCRISPR Cas9, FRMD7 editing); test: HDR (precise edit) frequency relative to solvent control (fold (ratio to mock)); higher = more homology-directed repair outcomes
Experimental: (§1)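 Subset screen of 55 drugs tested at 5 concentrations around the effective screening dose, in 409B2 iCRISPR Cas9 hiPSCs editing FRMD7 with a ssDNA donor. Drugs were applied for 24 h. Viability was read by resazurin and editing outcomes by amplicon sequencing (HDR, NHEJ <2 bp microhomology, MMEJ ≥2 bp microhomology). Values are relative to solvent mock controls; two biological replicates.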

[2] = tested on: 409B2 hiPSC (iCRISPR Cas9, FRMD7 editing); test: NHEJ-attributed indel frequency relative to solvent control (fold (ratio to mock)); higher = more NHEJ outcomes
Experimental: as §1

[3] = tested on: 409B2 hiPSC (iCRISPR Cas9, FRMD7 editing); test: cell survival relative to solvent control (fold (ratio to mock)); higher = more surviving cells
Experimental: as §1

[4] = tested on: 409B2 hiPSC (iCRISPR Cas9, FRMD7 editing); test: MMEJ-attributed deletion frequency relative to solvent control (fold (ratio to mock)); higher = more MMEJ outcomes
Experimental: as §1

| Structure (SMILES) | HDR ([1]; 2000 nM) | HDR ([1]; 5000 nM) | NHEJ-attributed indel frequency ([2]; 2000 nM) | NHEJ-attributed indel frequency ([2]; 5000 nM) | cell survival ([3]; 2000 nM) | cell survival ([3]; 5000 nM) | MMEJ-attributed deletion frequency ([4]; 2000 nM) | MMEJ-attributed deletion frequency ([4]; 5000 nM) | HDR ([1]; 20 nM) | HDR ([1]; 50 nM) | HDR ([1]; 100 nM) | HDR ([1]; 200 nM) | HDR ([1]; 500 nM) | NHEJ-attributed indel frequency ([2]; 20 nM) | NHEJ-attributed indel frequency ([2]; 200 nM) | NHEJ-attributed indel frequency ([2]; 500 nM) | cell survival ([3]; 200 nM) | cell survival ([3]; 500 nM) | MMEJ-attributed deletion frequency ([4]; 200 nM) | MMEJ-attributed deletion frequency ([4]; 500 nM) | also measured |
| --- | --- | --- | --- | --- | --- | --- | --- | --- | --- | --- | --- | --- | --- | --- | --- | --- | --- | --- | --- | --- | --- |
| CC(=O)c1c(C)c2cnc(Nc3ccc(N4CCNCC4)cn3)nc2n(C2CCCC2)c1=O (in DMSO) | 1.01 ± 0.011 | 0.587 ± 0.11 | 0.989 ± 0.048 | 0.993 ± 0.073 | 0.475 | 0.185 | 0.907 ± 0.03 | 1.19 ± 0.17 | – | – | – | – | – | – | – | – | – | – | – | – | HDR ([1]; 10000 nM): 0.152 ± 0.029; HDR ([1]; 20000 nM): 0.0501 ± 0.0028; HDR ([1]; 50000 nM): 0.0996 ± 0.032; NHEJ-attributed indel frequency ([2]; 10000 nM): 0.46 ± 0.24; NHEJ-attributed indel frequency ([2]; 20000 nM): 0.127 ± 0.018; NHEJ-attributed indel frequency ([2]; 50000 nM): 0.12 ± 0.036; cell survival ([3]; 10000 nM): 0.0327; cell survival ([3]; 20000 nM): -0.0205; cell survival ([3]; 50000 nM): 0.00851; MMEJ-attributed deletion frequency ([4]; 10000 nM): 0.73 ± 0.046; MMEJ-attributed deletion frequency ([4]; 20000 nM): 0.458 ± 0.082; MMEJ-attributed deletion frequency ([4]; 50000 nM): 0.244 ± 0.076 |
| C[C@@H]1O[C@@H](O[C@@H]2[C@@H](O)[C@H](OCCc3ccc(O)c(O)c3)O[C@H](CO)[C@H]2OC(=O)/C=C/c2ccc(O)c(O)c2)[C@H](O)[C@H](O)[C@H]1O [Verbascoside] (in DMSO) | – | – | – | – | – | – | – | – | 1.1 ± 0.064 | 1.13 ± 0.017 | 1.024 ± 0.0069 | 1.04 ± 0.044 | 1.11 ± 0.012 | 0.964 ± 0.014 | 1 ± 0.019 | 0.975 ± 0.016 | 1.11 | 1.04 | 0.976 ± 0.13 | 1.02 ± 0.087 | NHEJ-attributed indel frequency ([2]; 50 nM): 1.01 ± 0.033; NHEJ-attributed indel frequency ([2]; 100 nM): 0.994 ± 0.03; cell survival ([3]; 20 nM): 0.884; cell survival ([3]; 50 nM): 1.1; cell survival ([3]; 100 nM): 0.99; MMEJ-attributed deletion frequency ([4]; 20 nM): 1.01 ± 0.02; MMEJ-attributed deletion frequency ([4]; 50 nM): 0.993 ± 0.082; MMEJ-attributed deletion frequency ([4]; 100 nM): 1.06 ± 0.06 |
| CC(=O)O[C@@]12CO[C@@H]1C[C@@H](O)[C@@]1(C)C(=O)[C@H](O)C3=C(C)[C@@H](O)C[C@@](O)([C@@H](OC(=O)c4ccccc4)[C@H]21)C3(C)C [10-DAB (10-Deacetylbaccatin)] (in DMSO) | 0.304 ± 0.013 | 0.339 ± 0.06 | 0.488 ± 0.08 | 0.522 ± 0.1 | 0.00356 | 0.00663 | 0.561 ± 0.18 | 0.4879 ± 0.0029 | – | – | – | 1.063 ± 0.0036 | 1 ± 0.049 | – | 0.906 ± 0.017 | 0.983 ± 0.014 | 0.914 | 1.06 | 1.06 ± 0.14 | 1.02 ± 0.049 | HDR ([1]; 1000 nM): 0.816 ± 0.17; NHEJ-attributed indel frequency ([2]; 1000 nM): 0.918 ± 0.075; cell survival ([3]; 1000 nM): 0.177; MMEJ-attributed deletion frequency ([4]; 1000 nM): 0.936 ± 0.083 |
| CO[C@@H]1[C@H](OC(=O)/C=C/C=C/C=C/C=C/C(=O)O)CC[C@]2(CO2)[C@H]1[C@@]1(C)O[C@@H]1CC=C(C)C [Fumagillin] (in DMSO) | – | – | – | – | – | – | – | – | 1.073 ± 0.0017 | 0.886 ± 0.049 | 0.791 ± 0.23 | 0.512 ± 0.27 | 0.471 ± 0.18 | 0.883 ± 0.019 | 0.604 ± 0.14 | 0.537 ± 0.071 | 0.0162 | 0.0244 | 0.705 ± 0.15 | 0.656 ± 0.17 | NHEJ-attributed indel frequency ([2]; 50 nM): 0.767 ± 0.041; NHEJ-attributed indel frequency ([2]; 100 nM): 0.723 ± 0.14; cell survival ([3]; 20 nM): 0.264; cell survival ([3]; 50 nM): 0.134; cell survival ([3]; 100 nM): 0.0522; MMEJ-attributed deletion frequency ([4]; 20 nM): 0.749 ± 0.1; MMEJ-attributed deletion frequency ([4]; 50 nM): 0.7745 ± 0.0004; MMEJ-attributed deletion frequency ([4]; 100 nM): 0.739 ± 0.15 |
| O=C1NC(=O)[C@@H](c2cn3c4c(cccc24)CCC3)[C@@H]1c1c[nH]c2ccccc12 [Tivantinib (ARQ 197)] (in DMSO) | 0.507 ± 0.081 | 0.281 ± 0.0069 | 1 ± 0.05 | 0.532 ± 0.069 | 0.0426 | 0.0118 | 1.48 ± 0.36 | 0.786 ± 0.051 | – | – | – | 1.01 ± 0.089 | 1.05 ± 0.015 | – | 0.949 ± 0.045 | 1.01 ± 0.025 | 0.979 | 1.04 | 0.915 ± 0.074 | 0.98 ± 0.025 | HDR ([1]; 1000 nM): 0.897 ± 0.1; NHEJ-attributed indel frequency ([2]; 1000 nM): 1.115 ± 0.0054; cell survival ([3]; 1000 nM): 0.271; MMEJ-attributed deletion frequency ([4]; 1000 nM): 1 ± 0.088 |
| Nc1ncnc2c1ncn2C1CC(O)C(CO)O1 (stereo not given) [2'-Deoxyadenosine monohydrate] (in DMSO) | – | – | – | – | – | – | – | – | 1.03 ± 0.021 | 1.02 ± 0.02 | 1.03 ± 0.11 | 1.01 ± 0.05 | 0.958 ± 0.062 | 1.01 ± 0.013 | 1.006 ± 0.008 | 1.01 ± 0.027 | 1.1 | 1.12 | 1.02 ± 0.036 | 1.02 ± 0.2 | NHEJ-attributed indel frequency ([2]; 50 nM): 1.02 ± 0.015; NHEJ-attributed indel frequency ([2]; 100 nM): 1 ± 0.029; cell survival ([3]; 20 nM): 0.996; cell survival ([3]; 50 nM): 1.12; cell survival ([3]; 100 nM): 1; MMEJ-attributed deletion frequency ([4]; 20 nM): 0.957 ± 0.043; MMEJ-attributed deletion frequency ([4]; 50 nM): 0.99 ± 0.071; MMEJ-attributed deletion frequency ([4]; 100 nM): 0.999 ± 0.11 |
| NCCS [2-Aminoethanethiol] (in DMSO) | – | – | – | – | – | – | – | – | 1.073 ± 0.0014 | 1.05 ± 0.08 | 0.984 ± 0.019 | 1.12 ± 0.029 | 0.949 ± 0.16 | 0.979 ± 0.0017 | 1 ± 0.022 | 1.02 ± 0.052 | 1.08 | 0.899 | 0.976 ± 0.074 | 1.04 ± 0.19 | NHEJ-attributed indel frequency ([2]; 50 nM): 1.003 ± 0.0053; NHEJ-attributed indel frequency ([2]; 100 nM): 0.9962 ± 0.0046; cell survival ([3]; 20 nM): 0.948; cell survival ([3]; 50 nM): 1.07; cell survival ([3]; 100 nM): 0.956; MMEJ-attributed deletion frequency ([4]; 20 nM): 0.917 ± 0.035; MMEJ-attributed deletion frequency ([4]; 50 nM): 0.862 ± 0.013; MMEJ-attributed deletion frequency ([4]; 100 nM): 0.932 ± 0.18 |
| CCCCc1oc2ccc(NS(C)(=O)=O)cc2c1C(=O)c1ccc(OCCCN(CCCC)CCCC)cc1 [Dronedarone HCl] (in DMSO) | 0.513 ± 0.071 | 0.556 ± 0.012 | 0.958 ± 0.093 | 1.06 ± 0.092 | 0.521 | 0.261 | 0.923 ± 0.16 | 1.18 ± 0.34 | – | – | – | 0.891 ± 0.2 | 0.835 ± 0.2 | – | 0.991 ± 0.011 | 1.04 ± 0.043 | 1.15 | 1.01 | 0.537 ± 0.76 | 0.463 ± 0.65 | HDR ([1]; 1000 nM): 0.734 ± 0.051; NHEJ-attributed indel frequency ([2]; 1000 nM): 1.01 ± 0.013; cell survival ([3]; 1000 nM): 0.696; MMEJ-attributed deletion frequency ([4]; 1000 nM): 0.895 ± 0.18 |
| O=[N+]([O-])O[C@@H]1CO[C@H]2[C@@H]1OC[C@@H]2O [Isosorbide 5-mononitrate] (in DMSO) | 1.08 ± 0.25 | 1.14 ± 0.04 | 0.899 ± 0.036 | 0.9787 ± 0.0053 | 0.898 | 1.39 | 0.904 ± 0.25 | 0.993 ± 0.058 | – | – | – | – | – | – | – | – | – | – | – | – | HDR ([1]; 10000 nM): 1.14 ± 0.051; HDR ([1]; 20000 nM): 1.07 ± 0.14; HDR ([1]; 50000 nM): 1.22 ± 0.11; NHEJ-attributed indel frequency ([2]; 10000 nM): 0.967 ± 0.016; NHEJ-attributed indel frequency ([2]; 20000 nM): 0.988 ± 0.033; NHEJ-attributed indel frequency ([2]; 50000 nM): 0.983 ± 0.013; cell survival ([3]; 10000 nM): 1.19; cell survival ([3]; 20000 nM): 1.15; cell survival ([3]; 50000 nM): 1.36; MMEJ-attributed deletion frequency ([4]; 10000 nM): 0.983 ± 0.057; MMEJ-attributed deletion frequency ([4]; 20000 nM): 0.994 ± 0.012; MMEJ-attributed deletion frequency ([4]; 50000 nM): 0.955 ± 0.048 |
